Assay results as given in article PMC10520499, “Next step in the development of mesoprogestins: the preclinical profile of EC313” (Frontiers in Endocrinology, 2023).
Where “and” joins values, the source holds several entries; their conditions need not be identical. Equal values may be shown once.

Experiments:
[1] = biological target: T1, hGR-LBD purified recombinant protein (Homo sapiens, UniProt P04150); experiment: Competitive binding, GR ligand binding domain
T1 construct: purchased Thermo Fisher Scientific
T1 sequence (P04150 524-758 limits assumed): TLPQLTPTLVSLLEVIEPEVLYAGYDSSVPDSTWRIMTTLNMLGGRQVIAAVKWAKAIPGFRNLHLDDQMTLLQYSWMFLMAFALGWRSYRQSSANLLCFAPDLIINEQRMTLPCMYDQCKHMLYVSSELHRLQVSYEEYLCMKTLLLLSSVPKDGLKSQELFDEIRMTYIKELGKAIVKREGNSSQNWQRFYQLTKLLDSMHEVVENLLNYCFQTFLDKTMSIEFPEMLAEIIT
Description: (§1) The study aimed to characterize the competitive binding profile of EC313 to relevant human nuclear receptors. For the assays, commercially available ‘ligand binding domain’ proteins were purchased (Thermo Fisher Scientific). In addition, the full-length receptor proteins were expressed in transfected HI insect cells using the `Bac-to-bac Baculovirus expression system´ (Thermo Fisher Scientific). Cellular lysates served as receptor preparation. Receptor protein preparations were incubated with tritiated reference ligands and EC313 or reference steroids at concentrations between 0.1 and 1000 nM for 2h at 4°C to reach equilibrium. Subsequently, unbound steroids were adsorbed to dextran-coated charcoal (Sigma Aldrich), separated by filtration, and the remaining radioactivity was quantified in a ß-counter (Perkin Elmer). Displacement curves were fitted using the GraphPad Prism 7 free version to obtain EC50 values. Relative binding affinity (RBA [%], (C50ref/C50test)*100) and the competition coefficient (C50test/C50ref) were used to describe the relative binding potency of EC313 compared to the reference ligands.

human PRA = human PRA (Homo sapiens, UniProt P06401); experiment: PR-A transactivation (CHO, MMTV-LUC); assay type: cell-based
Description: Due to the existence of two isoforms of the PR receptor (PRA and PRB) and the fact that both of them control expression of a largely different set of genes, separate assays for each of them were carried out.
In order to develop the transfection assay, plasmids were generated and isolated. Plasmids included vectors with the coding sequences for the receptor as well as the reporter gene, respectively. The vector pcDNA3.1 coding sequence for the full length of human PRA and PRB (cDNA ORF clone in pcDNA3.1+/C-(K)-DYK) was used as an expression vector for PR isoform A and B, respectively. Vector pGL4.36 coding for the progesterone responsive element MMTV and firefly luciferase reporter vector [luc2P/Hygro] were used as reporter systems (pGL4.36-MMTV/LUC).
A sufficient transactivation signal was achieved using stable transfection for the human PRA and PRB receptors and transient transfection for the MMTV-luciferase reporter gene. Therefore, the first stable transfection with the receptor of interest was performed. Thus, 0.5x10^6 CHO cells per well were plated into 6-well plates in transfection medium w/o antibiotics (RPMI phenol-free, 10% FBS,2mM L-glutamine). When the cells reached 80% confluency, transfection with receptor using FuGENE 6 in Opti-MEM medium was accomplished according to the manufacturer’s instruction. After 48h of transfection, stably transfected cells were cultured in a growth medium containing an antibiotic (G418 500 µg/mL). Only cells with the resistance gene (resistance to G418), which had been transfected together with the DNA for PRA and PRB were able to grow in this medium. Consequently, growing cell clones were selected for further steps as stable transfectants. The CHO cells stably transfected with the expression of PRA or PRB were transiently transfected with promoter MMTV/LUC vectors. […]
After 24h incubation of cells with tested compounds, luciferase activity was measured using a VICTOR™ X Multilabel Plate Reader -Perkin Elmer.

cycling guinea pigs = experiment: Ovulation inhibition in cycling guinea pigs; assay type: in vivo, guinea pig; details: for Number of ovulations vs. number of inseminated females: cycle days 10-17
Description: Test compounds were administered once daily from cycle days 10-17 by s. c. injection using 0.2 mL vehicle (benzyl-benzoate/castor oil, ratio 1 + 4 v/v). The time of autopsy (day 18) was 24-48h after the expected ovulation at the end of the treatment cycle. This design permits the study of the effects of the tested compounds on the expected ovulation. Fresh CL were evidence of a recent ovulation.

[2] = tested on: orchiectomized male Wistar rats; experiment: Hershberger assay; assay type: in vivo, rat; details: 3, 10 and 30 mg/animal/day s.c., 7 days; ± Testosterone propionate 1 mg/animal/day
Description: To test EC313 for potential androgenic or anti-androgenic potential, the Hershberger assay was used. Orchiectomized male Wistar rats were treated for 7 consecutive days with daily subcutaneous injections of EC313 (3, 10, and 30 mg/animal/day).
The potential anti-androgenic activity was assessed by co-administration of Testosterone propionate (TP; 1 mg/animal/day s.c.), which also served as the positive control, and EC313. The vehicle served as the negative control. One day after the last treatment, animals were sacrificed and the prostate gland and the seminal vesicles were removed and weighed. The relative weight of these organs, expressed as mg/100 g body weight, served as the endpoint.

GR = biological target: T2, GR (Homo sapiens, UniProt P04150); experiment: GR transactivation (HELA, MMTV-LUC); assay type: cell-based; design: HELA cells line carrying endogenous glucocorticoid protein; endogenous in cells; host or cells: HELA, stably transfected with the reporter only
T2 sequence (P04150 1-777): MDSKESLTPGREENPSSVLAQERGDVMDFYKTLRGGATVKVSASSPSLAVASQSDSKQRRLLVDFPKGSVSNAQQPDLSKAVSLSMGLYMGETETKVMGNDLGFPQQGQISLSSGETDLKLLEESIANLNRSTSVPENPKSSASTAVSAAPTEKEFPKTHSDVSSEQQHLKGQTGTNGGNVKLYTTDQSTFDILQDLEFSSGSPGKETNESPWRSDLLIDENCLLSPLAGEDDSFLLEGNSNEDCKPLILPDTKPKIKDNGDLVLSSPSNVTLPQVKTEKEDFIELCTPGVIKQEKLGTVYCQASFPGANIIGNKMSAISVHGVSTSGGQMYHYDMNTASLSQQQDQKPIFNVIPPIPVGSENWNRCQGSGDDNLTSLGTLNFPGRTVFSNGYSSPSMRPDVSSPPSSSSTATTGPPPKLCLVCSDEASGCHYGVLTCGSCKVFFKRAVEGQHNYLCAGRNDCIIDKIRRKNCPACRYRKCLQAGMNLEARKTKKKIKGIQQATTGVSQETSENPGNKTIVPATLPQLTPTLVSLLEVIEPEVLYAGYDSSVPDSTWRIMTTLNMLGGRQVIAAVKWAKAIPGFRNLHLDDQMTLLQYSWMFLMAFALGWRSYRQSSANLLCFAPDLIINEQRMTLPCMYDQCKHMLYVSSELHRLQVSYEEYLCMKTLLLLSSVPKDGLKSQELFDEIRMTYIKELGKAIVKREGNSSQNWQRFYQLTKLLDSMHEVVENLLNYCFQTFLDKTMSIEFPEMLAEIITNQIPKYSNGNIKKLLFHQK
Description: HELA cells line carrying endogenous glucocorticoid protein were cultured in order to study gene expression on the transcriptional level under the influence of the tested compounds. The cells were transfected with reporter vector MMTV/LUC. To produce high protein overexpression, stable transfection was carried out. […] Agonist and antagonist properties of EC313 toward tested receptor GR were analyzed using luminescence detection.
In order to develop the transfection assay, plasmids were generated and isolated. Vector pGL4.36 coding the glucocorticoid receptor responsive element MMTV and firefly luciferase reporter vector [luc2P/Hygro] were used as a reporter system (pGL4.36-MMTV/LUC). The cells were transfected with reporter vector MMTV/LUC.
stable transfection with reporter vector was performed on a 6-well plate (0.5x10^6 cells per well) in culture medium (EMEM, 10% FBS, NEAA, sodium […], L-glutamine). Briefly, according to the transfection procedure, cells were passaged, and they grew in a culture medium containing an appropriate concentration of the antibiotic (Hygromycin 150 µg/mL). Resistance to Hygromycin gene, which had been transfected together with the reporter vector to the cells, only allowed positively transfected cells to grow in this medium. Therefore, growing cell clones were selected for further steps as stable transfectants.
After 24h incubation of cells with the tested compounds, luciferase activity was measured using VICTOR™ X Multilabel Plate Reader -Perkin Elmer.

[3] = biological target: T3, ligand binding domain of the human androgen receptor (AR-LBD) (Homo sapiens, UniProt P10275); experiment: Competitive binding, AR ligand binding domain
T3 construct: purchased Thermo Fisher Scientific
Description: as §1

[4] = GR-LBD, EC313 relative to Dexamethasone

human PRA, sequence (P06401 165-933): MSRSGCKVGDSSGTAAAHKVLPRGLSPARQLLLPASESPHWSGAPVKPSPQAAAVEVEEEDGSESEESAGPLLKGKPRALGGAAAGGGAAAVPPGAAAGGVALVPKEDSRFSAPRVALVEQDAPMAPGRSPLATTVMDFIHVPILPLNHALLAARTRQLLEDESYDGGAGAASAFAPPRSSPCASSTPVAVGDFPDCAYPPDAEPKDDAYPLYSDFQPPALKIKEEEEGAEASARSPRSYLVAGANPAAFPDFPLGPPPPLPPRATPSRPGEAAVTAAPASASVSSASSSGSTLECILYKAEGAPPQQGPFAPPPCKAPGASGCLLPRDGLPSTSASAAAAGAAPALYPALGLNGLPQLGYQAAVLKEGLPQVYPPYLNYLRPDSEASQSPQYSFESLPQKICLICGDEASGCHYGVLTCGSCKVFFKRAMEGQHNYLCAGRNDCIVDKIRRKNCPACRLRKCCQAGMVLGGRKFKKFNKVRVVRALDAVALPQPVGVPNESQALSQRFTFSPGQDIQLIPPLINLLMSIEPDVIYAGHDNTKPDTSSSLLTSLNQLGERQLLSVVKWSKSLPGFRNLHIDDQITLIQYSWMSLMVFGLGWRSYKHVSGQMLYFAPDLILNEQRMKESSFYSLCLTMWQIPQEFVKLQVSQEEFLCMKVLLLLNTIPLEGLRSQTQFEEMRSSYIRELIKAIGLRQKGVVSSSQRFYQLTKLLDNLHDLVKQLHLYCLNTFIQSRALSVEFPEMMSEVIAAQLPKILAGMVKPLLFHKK
T3 sequence (P10275 669-900 limits assumed): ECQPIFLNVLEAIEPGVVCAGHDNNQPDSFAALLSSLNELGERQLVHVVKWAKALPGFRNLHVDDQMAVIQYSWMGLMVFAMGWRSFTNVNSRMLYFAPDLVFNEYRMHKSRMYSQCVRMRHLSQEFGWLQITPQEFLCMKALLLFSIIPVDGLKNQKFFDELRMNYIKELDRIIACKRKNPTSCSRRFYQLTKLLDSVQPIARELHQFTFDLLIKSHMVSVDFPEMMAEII

C[C@]12C[C@H](c3ccc(-c4ccoc4)cc3)C3=C4CCC(=O)C=C4CC[C@H]3[C@@H]1CC[C@]21OCCC1=C(F)F [EC313]
Comp. Coefficient [1, 4]: 2 and 1.7
RBA [1, 4]: 60%
IC50 ([1]; hGR-LBD purified recombinant protein): 19.1 ± 0.9 nM
IC50 (human PRA; Promegestone 35 nM, read-out: IC50, antagonism of Promegestone-induced reporter gene expression): 7.96 nM and 8 nM
EC50 (human PRA; weak agonistic activity, in the range of the maximum concentration tested): ~1000 nM
Number of ovulations vs. number of inseminated females (cycling guinea pigs; 0.1 mg/animal/day s.c.): 1/5
Number of ovulations vs. number of inseminated females (cycling guinea pigs; 1.0 mg/animal/day s.c.): 0/5
Number of ovulations vs. number of inseminated females (cycling guinea pigs; 10.0 mg/animal/day s.c.): 0/8
inhibition of ovulation (cycling guinea pigs; 1 and 10 mg/animal/day s.c.): Full inhibition of ovulation
effects in the vaginal epithelium (cycling guinea pigs; non-pregnant guinea pigs, all tested dose levels, 0.1 to 10.0 mg/animal/day s.c.): mucification
androgenic / anti-androgenic effects (prostate plus seminal vesicle weights) [2]: neither significant androgenic nor anti-androgenic effects
activity on GR in transactivation (GR): weak inhibitor
IC50 (GR; comparative transactivation profile, read-out: Potency, GR Antagonism): 100 nM
IC50 ([3]; AR-LBD): 1060 nM
AR-LBD Comp. Coefficient ([3]; EC313 relative to Metribolone): 17
